Residues, ends and D or L forms follow the SMILES beside them.
Legend:
αIIb β3 on A5 cells [1] = molecular target: T1, αIIb β3 on A5 cells (Homo sapiens, UniProt P05106+P08514); experiment: Soluble 125I-fibrinogen binding to A5 cells; assay type: cell-based
T1 construct: expressed in transfected cells
Method: FIG. 4 illustrates the equilibrium binding of soluble fibrinogen (Fg) to Ab-62 stimulated (activated) A5 cells when measured as in Example 10. A5 cells at a concentration of 10^6 per ml were admixed with 6 uM of Sepharose-purified AB-62 and maintained at 22 C. for 30 minutes to activate the integrin. Iodinated Fg was then admixed in varying concentrations from 0.01 to 1 nM. After a 60 minute maintenance period, the bound ligand was separated from free ligand by centrifugation through 0.3 ml of 20% sucrose. The amount of radiolabelled ligand associated with the cell pellet was determined by gamma detection. Saturable binding was measured in three different experiments and plotted versus the input Fg concentration to obtain an averaged profile. A Scatchard replot of the binding data was made and is shown in the insert.
An independent measure of integrin activation was made by detecting the ability of a cell containing the integrin to bind soluble fibrinogen (Fg) that had been labelled with ^125 I. Fg was isolated and labelled with ^125 I by standard methods as described by Marguerie et al., J. Biol. Chem., 255:154-161 (1980) to form ^125 I-Fg. Thereafter, the binding of ^125 I-Fg to transfected cells was assayed as described previously for platelets [Marguerie et al., J. Biol. Chem., 255:154-161 (1980)]. Binding was initiated by the addition of cells to radiolabelled Fg and incubation at 37 degrees for 30 minutes. Bound ligand was separated from free ligand by centrifugation through 0.3 ml of 20% sucrose and the amount of radiolabelled ligand associated with the cell pellet determined by gamma detection.
Background binding in this assay detected about 30,000 molecules of Fg bound per integrin bearing cell, whereas maximum Ab-62 stimulated A5 cells bound about 95,000 molecules of Fg per cell.
Equilibrium binding of soluble Fg to Ab-62 stimulated (activated) A5 cells was carried out to better characterize Fg binding. […] A5 cells (10^6 per ml) were incubated with 6 uM Sepharose-purified Ab-62 for 30 minutes at 22 C. to activate the integrin. Thereafter ^125 I-Fg was admixed in varying concentrations from 0.01 to 1 nM. After 60 minutes, bound Fg was measured as described above after centrifugation of the cells through sucrose.
Saturable binding was measured in three different experiments and plotted versus the input Fg concentration to obtain average data which is shown in FIG. 4. A Scatchard replot of the binding data was also made and is shown in the inset to FIG. 4. The binding of the various concentrations of Fg to activated A5 cells at steady state was analyzed by use of the "Ligand" computer program. […] There was day to day variation in the quantity of αIIb β3 expressed as measured by the binding of the 2G12 antibody (150,000 to 440,000 sites/cell) as well as in the number of Fg receptors (138,000 to 360,000 sites/cell). The ratio of Fg receptors to αIIb β3 expressed per cell on a given day was 0.83±0.05, thus virtually all of the recombinant αIIb β3 was functional with respect to Fg binding.

[2] = molecular target: T2, solubilized αIIb β3 from platelets (Homo sapiens, UniProt P05106+P08514); experiment: Solution phase assay: 125I-Fg binding to solubilized αIIb β3; assay type: biochemical
T2 construct: αIIb β3 was solubilized from platelets; endogenous in cells; host or cells: human platelets, octylglucoside lysate
Method: To determine if activating antibodies could activate αIIb β3 extracted away f rom the membrane milieu, the activating capacity to stimulate Fg binding in a solution phase was assayed. In this assay, αIIb β3 was solubilized from platelets, incubated in the presence or absence of activating monoclonal antibodies, and then bound to microtiter plates coated with a non-activating monoclonal anti β3 antibody.
The platelet pellet was resuspended and solubilized in ice cold 10 mM Hepes containing 150 mM NaCl, 50 mM octyl-B-D-glucoypyranoside (Calbiochem, La Jolla, Calif.) 1 mm PMSF, 50 ng/ml PGE, 1 mM CaCl2, 1 mM MgCl2, 50 uM leupeptin and 1 mg/ml N-ethylmaleimide (Sigma, St. Louis, Mo.) and centrifuged at 100,000 g for 30 minutes. […] The microtiter wells were incubated at 4 C. overnight, washed twice with a modified Tyrodes-Hepes buffer (2.5 mM Hepes, 150 mM NaCl, 2.5 mM KCl, 1 mM MgCl2, 12 mM NaHCO3, 5.5 mM D-glucose and 1 mg/ml BSA, pH 7.4) containing 50 MM octyl-B-D-glucopyranoside and 0.1 uM activating monoclonal antibody and then twice in Tyrodes-Hepes buffer only to form αIIb β3 -bound microtiter wells. […] Bound radioactivity was counted after 2 washes with Tyrodes-Hepes buffer.

GPIIb-IIIa on platelets = molecular target: T3, GPIIb-IIIa on platelets (Homo sapiens, UniProt P05106+P08514); experiment: 125I-anti-LIBS1 binding to washed platelets with peptide ligands; conditions: peptide 0.8 mM; stimulated and unstimulated platelets
T3 construct: endogenous in cells; host or cells: platelets
Method: FIG. 2 illustrates anti-LIBS1 binding to platelets expressing a cryptic antigenic determinant as described in Example 5. Varied concentrations of ^125 I-anti-LIBS1 were bound at 37 C. for 30 minutes to gel-filtered platelets in the presence of no peptide (inverted triangle), 0.8 mM GRGESP (squares), 0.8 mM GRGDSP (triangles) or GRGDSP and 10 uM ADP (circles). Bound radioactivity was separated from free by spinning the platelets through a layer of sucrose.
Washed platelets were isolated as described in Example 1A, and were resuspended in 2 ml of calcium-free Tyrode's buffer (0.13 M NaCl, 0.0026 M KCl 0.002M MgCl2. 6H2 O, 5 mM Hepes, 0.012 M NaHCO3, pH 7.2) which was first treated by admixture with Chelex 100 (200-400 mesh sodium form, Bio-Rad Laboratories, Richmond, Calif.), maintained to complex any divalent cations present in the Tyrode's buffer and filtered to remove the complexed divalent cations from the buffer. The platelet suspension was then applied to a Sepharose CL2B column (40 ml total bed volume, Pharmacia, Inc., Piscataway, N.J.) equilibrated with the same Tyrode's buffer. […] The label containing immunoreaction products were then separated from non-bound ^125 I-labeled antibody by centrifugation of the platelet aliquot through a sucrose cushion as described in Example 4, and the platelet-associated radioactivity was determined as before.

αIIb β3 on A5 cells [3] = molecular target: T1, αIIb β3 on A5 cells; experiment: Binding of fibrinogen-coated fluorescent beads to A5 cells; assay type: cell-based; conditions: 2 mM peptide
Method: Immobilized Fg was prepared by coating […] fluorescent latex beads (Fluoricon Fluorescent Particles, Baxter, McGraw Park, Ill.). These beads were prepared by incubating 1 mg of purified Fg with 650 ul of Fluoricon beads for 1 hour at room temperature. The beads were pelleted, resuspended in 1 ml of 30 mM Tris pH 7.4, 170 mM NaCl and 1% BSA, and stored at 4 degrees until ready for use. The binding of these particles to transfected cells was assessed by incubating 5×10^5 cells with 25 ul of beads in the presence or absence of polypeptide inhibitors for 30 minutes at room temperature. The solution was layered over a 6% BSA cushion, spun 5 minutes in a microfuge and the pelleted cells resuspended in 500 ul of Tyrodes and subjected to FACS analysis as described in Example 7.

αIIb β3 and αv β3 = experiment: Peptide ligand recognition by recombinant β3 integrins; assay type: binding, human

T1 sequence (P08514 32-887 limits assumed): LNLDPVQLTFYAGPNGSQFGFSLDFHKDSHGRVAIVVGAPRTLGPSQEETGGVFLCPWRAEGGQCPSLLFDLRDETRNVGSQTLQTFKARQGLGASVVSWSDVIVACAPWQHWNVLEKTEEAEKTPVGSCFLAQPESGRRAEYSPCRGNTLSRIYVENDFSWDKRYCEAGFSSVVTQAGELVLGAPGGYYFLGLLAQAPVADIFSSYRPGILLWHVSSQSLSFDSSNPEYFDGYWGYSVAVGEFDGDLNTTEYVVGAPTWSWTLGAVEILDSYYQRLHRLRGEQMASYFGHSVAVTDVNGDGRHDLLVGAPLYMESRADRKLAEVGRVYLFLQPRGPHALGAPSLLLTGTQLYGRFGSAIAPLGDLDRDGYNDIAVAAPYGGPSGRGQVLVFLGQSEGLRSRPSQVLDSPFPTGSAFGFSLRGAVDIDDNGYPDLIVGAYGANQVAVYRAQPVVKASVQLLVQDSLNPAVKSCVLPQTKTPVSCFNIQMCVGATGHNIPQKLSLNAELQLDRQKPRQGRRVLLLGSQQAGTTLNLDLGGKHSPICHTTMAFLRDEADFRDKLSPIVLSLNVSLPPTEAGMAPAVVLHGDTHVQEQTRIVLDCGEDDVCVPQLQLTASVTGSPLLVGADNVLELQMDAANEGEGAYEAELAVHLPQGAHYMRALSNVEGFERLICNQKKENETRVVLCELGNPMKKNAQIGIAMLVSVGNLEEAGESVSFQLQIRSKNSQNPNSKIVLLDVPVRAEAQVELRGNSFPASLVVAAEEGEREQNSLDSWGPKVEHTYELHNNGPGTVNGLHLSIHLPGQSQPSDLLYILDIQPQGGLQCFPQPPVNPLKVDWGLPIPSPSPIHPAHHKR
T1 sequence (P08514 891-1039 partner limits assumed): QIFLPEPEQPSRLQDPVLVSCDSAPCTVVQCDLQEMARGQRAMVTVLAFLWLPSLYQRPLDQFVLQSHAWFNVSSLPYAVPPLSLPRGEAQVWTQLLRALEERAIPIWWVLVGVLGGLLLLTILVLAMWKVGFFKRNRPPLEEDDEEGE
T1 sequence (P05106 27-788): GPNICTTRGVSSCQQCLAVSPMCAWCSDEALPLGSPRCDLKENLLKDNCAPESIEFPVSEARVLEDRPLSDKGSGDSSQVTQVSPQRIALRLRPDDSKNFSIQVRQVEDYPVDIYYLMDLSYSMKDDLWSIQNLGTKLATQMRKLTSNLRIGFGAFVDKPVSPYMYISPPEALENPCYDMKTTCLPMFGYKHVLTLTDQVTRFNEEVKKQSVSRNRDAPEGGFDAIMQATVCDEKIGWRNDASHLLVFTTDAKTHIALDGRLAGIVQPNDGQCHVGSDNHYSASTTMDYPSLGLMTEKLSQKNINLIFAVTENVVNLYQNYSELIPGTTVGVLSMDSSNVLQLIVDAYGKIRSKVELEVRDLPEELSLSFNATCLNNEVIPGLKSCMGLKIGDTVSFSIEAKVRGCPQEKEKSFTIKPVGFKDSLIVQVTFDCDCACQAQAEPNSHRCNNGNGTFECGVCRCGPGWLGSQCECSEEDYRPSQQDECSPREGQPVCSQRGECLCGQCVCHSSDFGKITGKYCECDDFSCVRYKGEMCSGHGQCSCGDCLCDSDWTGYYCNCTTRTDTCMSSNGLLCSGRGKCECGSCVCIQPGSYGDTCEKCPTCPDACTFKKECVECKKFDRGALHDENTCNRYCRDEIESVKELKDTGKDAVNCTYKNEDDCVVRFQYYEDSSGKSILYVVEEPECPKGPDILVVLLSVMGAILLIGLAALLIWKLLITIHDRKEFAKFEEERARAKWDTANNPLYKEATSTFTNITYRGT
T2 sequence (P08514 32-887 limits assumed): as the sequence (P08514 32-887 limits assumed) above
T2 sequence (P08514 891-1039 partner limits assumed): as the sequence (P08514 891-1039 partner limits assumed) above
T2 sequence (P05106 27-788): as the sequence (P05106 27-788) above
T3 sequence (P08514 32-887 limits assumed): as the sequence (P08514 32-887 limits assumed) above
T3 sequence (P08514 891-1039 partner limits assumed): as the sequence (P08514 891-1039 partner limits assumed) above
T3 sequence (P05106 27-788): as the sequence (P05106 27-788) above

N=C(N)NCCC[C@H](NC(=O)CN)C(=O)NCC(=O)N[C@@H](CC(=O)O)C(=O)N[C@@H](CO)C(=O)N1CCC[C@H]1C(=O)O [GRGDSP, Gly-Arg-Gly-Asp-Ser-Pro]
inhibition of soluble 125I-Fg binding to activated A5 cells (αIIb β3 on A5 cells [1]): inhibited
inhibition of Fg binding to stimulated captured receptor [2]: inhibition
induction of LIBS1 cryptic antigenic determinant on platelets by peptide ligand (GPIIb-IIIa on platelets): will express a LIBS1 cryptic antigenic determinant
adherence of A5 cells to Fg-coated microspheres (αIIb β3 on A5 cells [3]): inhibited

CC(C)C[C@H](N)C(=O)NCC(=O)NCC(=O)N[C@@H](C)C(=O)N[C@@H](CCCCN)C(=O)N[C@@H](CCC(N)=O)C(=O)N[C@@H](C)C(=O)NCC(=O)N[C@@H](CC(=O)O)C(=O)N[C@H](C(=O)O)C(C)C [Mab L10, LGGAKQAGDV] (H-LGGAKQAGDV-OH)
recognition of peptide by αIIb β3 versus αv β3 (αIIb β3 and αv β3): recognized better by αIIb β3 than by αv β3
